Reference: US20100137305A1, “AMINOPYRIMIDINES USEFUL AS KINASE INHIBITORS” (VERTEX PHARMACEUTICALS INCORPORATED, priority 2008, published 2010)
Where two headings read alike, the source gives them in different places.

Experiments:
Aurora-2 (Aurora A) = target: T1, Aurora-2 (Aurora A) (Homo sapiens, UniProt O14965); assay: Aurora-2 (Aurora A) Inhibition Assay, coupled enzyme assay; format: biochemical; conditions: 400 μM ATP, 30° C.; read-out: Aurora A kinase activity Ki
T1 sequence (O14965 1-403): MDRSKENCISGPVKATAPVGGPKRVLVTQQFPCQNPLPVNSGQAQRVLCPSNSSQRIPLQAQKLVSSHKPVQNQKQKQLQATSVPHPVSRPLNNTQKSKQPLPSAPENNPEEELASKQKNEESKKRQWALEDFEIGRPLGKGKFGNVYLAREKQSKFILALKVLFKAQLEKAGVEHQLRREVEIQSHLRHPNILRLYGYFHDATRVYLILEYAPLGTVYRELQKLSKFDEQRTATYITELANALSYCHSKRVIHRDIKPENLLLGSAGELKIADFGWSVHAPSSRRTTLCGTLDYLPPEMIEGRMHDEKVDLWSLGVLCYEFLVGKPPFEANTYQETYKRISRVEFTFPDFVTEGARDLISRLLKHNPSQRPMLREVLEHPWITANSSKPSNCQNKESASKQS
Method: Compounds were screened for their ability to inhibit Aurora-2 using a standard coupled enzyme assay (Fox et al., Protein Sci., (1998) 7, 2249). Assays were carried out in a mixture of 100 mM Hepes (pH7.5), 10 mM MgCl2, 1 mM DTT, 25 mM NaCl, 2.5 mM phosphoenolpyruvate, 300 μM NADH, 30 μg/ml pyruvate kinase and 10 μg/ml lactate dehydrogenase. Final substrate concentrations in the assay were 400 μM ATP (Sigma Chemicals) and 570 μM peptide (Kemptide, American Peptide, Sunnyvale, Calif.). Assays were carried out at 30° C. and in the presence of 40 nM Aurora-2.
An assay stock buffer solution was prepared containing all of the reagents listed above, with the exception of Aurora-2 and the test compound of interest. 55 μl of the stock solution was placed in a 96 well plate followed by addition of 2 μl of DMSO stock containing serial dilutions of the test compound (typically starting from a final concentration of 7.5 μM). The plate was preincubated for 10 minutes at 30° C. and the reaction initiated by addition of 10 μl of Aurora-2. Initial reaction rates were determined with a Molecular Devices SpectraMax Plus plate reader over a 10 minute time course. IC50 and Ki data were calculated from non-linear regression analysis using the Prism software package (GraphPad Prism version 3.0cx for Macintosh, GraphPad Software, San Diego Calif., USA).

Aurora-1 (Aurora B) = Aurora-1 (Aurora B) (Homo sapiens, UniProt Q96GD4); assay: Aurora-1 (Aurora B) Inhibition Assay (radiometric); format: biochemical; conditions: 800 μM ATP; read-out: Aurora B kinase activity Ki
Aurora-1 (Aurora B), sequence (Q96GD4 whole entry): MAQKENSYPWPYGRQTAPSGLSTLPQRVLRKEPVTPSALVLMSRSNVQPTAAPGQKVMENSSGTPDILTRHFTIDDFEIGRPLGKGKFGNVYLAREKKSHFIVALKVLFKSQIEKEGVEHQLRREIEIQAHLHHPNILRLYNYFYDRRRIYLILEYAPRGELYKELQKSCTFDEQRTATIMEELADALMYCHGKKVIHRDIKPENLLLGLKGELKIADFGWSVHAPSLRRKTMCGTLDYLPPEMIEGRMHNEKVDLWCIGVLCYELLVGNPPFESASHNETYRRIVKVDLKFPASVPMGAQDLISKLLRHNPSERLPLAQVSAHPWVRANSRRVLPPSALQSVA
Method: An assay buffer solution was prepared which consisted of 25 mM HEPES (pH 7.5), 10 mM MgCl2, 0.1% BSA and 10% glycerol. A 22 nM Aurora-B solution, also containing 1.7 mM DTT and 1.5 mM Kemptide (LRRASLG), was prepared in assay buffer. To 22 μL of the Aurora-B solution, in a 96-well plate, was added 2 μl of a compound stock solution in DMSO and the mixture allowed to equilibrate for 10 minutes at 25° C. The enzyme reaction was initiated by the addition of 16 μl stock [γ-^33P]-ATP Pi-ATP solution (˜20 nCi/μL) prepared in assay buffer, to a final assay concentration of 800 μM. The reaction was stopped after 3 hours by the addition of 16 μL 500 mM phosphoric acid and the levels of ^33P incorporation into the peptide substrate were determined by the following method.
A phosphocellulose 96-well plate (Millipore, Cat no. MAPHNOB50) was pre-treated with 100 μL of a 100 mM phosphoric acid prior to the addition of the enzyme reaction mixture (40 μL). The solution was left to soak on to the phosphocellulose membrane for 30 minutes and the plate subsequently washed four times with 200 μL of a 100 mM phosphoric acid. To each well of the dry plate was added 30 μL of Optiphase ‘SuperMix’ liquid scintillation cocktail (Perkin Elmer) prior to scintillation counting (1450 Microbeta Liquid Scintillation Counter, Wallac). Levels of non-enzyme catalyzed background radioactivity were determined by adding 16 μL of the 500 mM phosphoric acid to control wells, containing all assay components (which acts to denature the enzyme), prior to the addition of the [γ-^33P]-ATP solution. Levels of enzyme catalyzed ^33P incorporation were calculated by subtracting mean background counts from those measured at each inhibitor concentration. For each Ki determination 8 data points, typically covering the concentration range 0-10 μM compound, were obtained in duplicate (DMSO stocks were prepared from an initial compound stock of 10 mM with subsequent 1:2.5 serial dilutions). Ki values were calculated from initial rate data by non-linear regression using the Prism software package (Prism 3.0, Graphpad Software, San Diego, Calif.).

Colo205 cells = assay: Analysis of Cell Proliferation, 3H thymidine incorporation; format: cell-based; conditions: Homo sapiens
Method: Compounds were screened for their ability to inhibit cell proliferation using Colo205 cells obtained from ECACC and using the assay shown below.
Colo205 cells were seeded in 96 well plates and serially diluted compound was added to the wells in duplicate. Control groups included untreated cells, the compound diluent (0.1% DMSO alone) and culture medium without cells. The cells were then incubated for 72 or 96 hrs at 37C in an atmosphere of 5% CO2/95% humidity.
To measure proliferation, 3 h prior to the end of the experiment 0.5 μCi of 3H thymidine was added to each well. Cells were then harvested and the incorporated radioactivity counted on a Wallac microplate beta-counter. Dose response curves were calculated using either Prism 3.0 (GraphPad) or SoftMax Pro 4.3.1 LS (Molecular Devices) software.

[1] = COLO 205, 96 h, 96 hours, read-out: IC50 cell proliferation after 96 hours
[2] = COLO 205, 72 h, 72 hours, read-out: IC50 cell proliferation after 72 hours

Ki (Aurora-2 (Aurora A)) [nM] | Ki (Aurora-1 (Aurora B)) [nM] | IC50 (Colo205 cells; [1]) [nM] | IC50 (Colo205 cells; [2]) [nM] | SMILES
≤ 10 | 10 to 50 | 50 to 200 |  | CCC(=O)Nc1ccc(Sc2nc(Nc3cc(C)n[nH]3)cc(N3CC[C@@H](NC)C3)n2)cc1 [Compound I-9]
≤ 10 | 10 to 50 | ≤ 50 |  | CCC(=O)Nc1ccc(Sc2nc(Nc3cc(C)n[nH]3)cc(N3CCC(N4CCC(F)C4)CC3)n2)cc1 (stereo not drawn) [Compound I-43]
≤ 10 | 10 to 50 |  | ≤ 25 | Cc1cnc(Nc2cc(N3CCC(N4CCN(C)CC4)CC3)nc(Sc3ccc(NC(=O)CC(F)(F)F)cc3)n2)s1 [Compound I-66]
≤ 10 |  | 50 to 200 |  | CCC(=O)Nc1ccc(Sc2nc(Nc3cc(C)n[nH]3)cc(N3CC4CCCNC4C3)n2)cc1 (stereo not drawn) [Compound I-19]
≤ 10 | 10 to 50 | 50 to 200 |  | CO[C@H]1CCN(c2cc(Nc3ncc(C)s3)nc(Sc3ccc(NC(=O)C4CC4)cc3)n2)C1 [Compound I-14]
≤ 10 | ≤ 10 |  | ≤ 25 | Cc1cc(Nc2cc(N3CC[C@@H](F)C3)nc(Sc3ccc(NC(=O)c4ccccc4C(F)(F)F)cc3)n2)[nH]n1 [Compound I-74]
≤ 10 | 10 to 50 |  |  | CCC(=O)Nc1ccc(Sc2nc(Nc3cc(C)n[nH]3)cc(N3CCC(OC(C)(C)C)CC3)n2)cc1 [Compound I-85]
≤ 10 | 10 to 50 | ≤ 50 | ≤ 25 | Cc1cnc(Nc2cc(N3CC4CCCNC4C3)nc(Sc3ccc(NC(=O)C4CC4)cc3)n2)s1 (stereo not drawn) [Compound I-59]
≤ 10 | ≤ 10 |  | ≤ 25 | Cc1cc(Nc2cc(N3CCC(N4CCOCC4)CC3)nc(Sc3ccc(NC(=O)C4(C(F)(F)F)CC4)cc3)n2)[nH]n1 [Compound I-67]
≤ 10 | 10 to 50 |  | 25 to 125 | Cc1cc(Nc2cc(N3CCC(N4CCCC4)CC3)nc(Sc3ccc(NC(=O)CC4CCCC4)cc3)n2)n[nH]1 [Compound I-77]
≤ 10 | 10 to 50 | ≤ 50 | ≤ 25 | CCC(=O)Nc1ccc(Sc2nc(Nc3cc(C4CC4)n[nH]3)cc(N3CCC(N4CCCC4)CC3)n2)cc1 [Compound I-56]
≤ 10 | 10 to 50 |  |  | Cc1cnc(Nc2cc(N3CC[C@@H](O)C3)nc(Sc3ccc(NC(=O)C4CC4)cc3)n2)s1 [Compound I-6]
≤ 10 | 10 to 50 | 50 to 200 |  | CCC(=O)Nc1ccc(Sc2nc(Nc3cc(C)n[nH]3)cc(N3CCC(N4CCCC4(C)C)CC3)n2)cc1 [Compound I-33]
10 to 50 |  | 50 to 200 |  | Cc1cnc(Nc2cc(N3CCC[C@@H](N(C)C)C3)nc(Sc3ccc(NC(=O)C4CC4)cc3)n2)s1 [Compound I-13]
≤ 10 | ≤ 10 | 50 to 200 |  | Cc1cc(Nc2cc(N3CCC(F)C3)nc(Sc3ccc(NC(=O)c4ccccc4Cl)cc3)n2)[nH]n1 (stereo not drawn) [Compound I-35]
≤ 10 | 10 to 50 |  | ≤ 25 | Cc1cc(Nc2cc(N3CCC(N4CCN(C)CC4)CC3)nc(Sc3ccc(NC(=O)CC(F)(F)F)cc3)n2)[nH]n1 [Compound I-73]
≤ 10 | 10 to 50 | 50 to 200 |  | CCC(=O)Nc1ccc(Sc2nc(Nc3cc(C)n[nH]3)cc(N3CCC(C#N)CC3)n2)cc1 [Compound I-16]
≤ 10 | 10 to 50 | ≤ 50 |  | CN1CCC2(CCN(c3cc(Nc4cc(C5CC5)n[nH]4)nc(Sc4ccc(NC(=O)C5CC5)cc4)n3)CC2)C1 [Compound I-51]

Ki (Aurora-2 (Aurora A)) [nM] | Ki (Aurora-1 (Aurora B)) [nM] | IC50 (Colo205 cells; [1]) [nM] | IC50 (Colo205 cells; [2]) [nM] | SMILES
≤ 10 | 10 to 50 | ≤ 50 |  | CCC(=O)Nc1ccc(Sc2nc(Nc3cc(C)n[nH]3)cc(N3CCC(O)(CC)CC3)n2)cc1 [Compound I-44]
10 to 50 |  | 50 to 200 |  | CCC(=O)Nc1ccc(Sc2nc(Nc3cc(C)[nH]n3)cc(N3CC[C@H](NC(C)C)C3)n2)cc1 [Compound I-28]
≤ 10 |  | 50 to 200 |  | CCC(=O)Nc1ccc(Sc2nc(Nc3cc(C)n[nH]3)cc(N3CCC(O)(C(C)(C)C)C3)n2)cc1 (stereo not drawn) [Compound I-10]
10 to 50 |  | 50 to 200 |  | Cc1cnc(Nc2cc(N3CCC[C@H](N(C)C)C3)nc(Sc3ccc(NC(=O)C4CC4)cc3)n2)s1 [Compound I-8]
≤ 10 |  | ≤ 50 |  | CN[C@@H]1CCN(c2cc(Nc3ncc(C)s3)nc(Sc3ccc(NC(=O)C4CC4)cc3)n2)C1 [Compound I-36]
≤ 10 |  | ≤ 50 |  | CCC(=O)Nc1ccc(Sc2nc(Nc3cc(C)n[nH]3)cc(N3CCC(N4CCCC4)C3)n2)cc1 (stereo not drawn) [Compound I-48]
≤ 10 |  | 50 to 200 |  | Cc1cnc(Nc2cc(N3CC[C@H](N(C)C)C3)nc(Sc3ccc(NC(=O)C4CC4)cc3)n2)s1 [Compound I-30]
≤ 10 | 10 to 50 |  |  | Cc1cnc(Nc2cc(N3CC[C@H](OC(C)C)C3)nc(Sc3ccc(NC(=O)C4CC4)cc3)n2)s1 [Compound I-5]
≤ 10 |  |  | 25 to 125 | Cc1cc(Nc2cc(N3CCC(N4CCCC4)CC3)nc(Sc3ccc(NC(=O)CC4CC4)cc3)n2)n[nH]1 [Compound I-83]
≤ 10 |  | 50 to 200 |  | CN[C@H]1CCCN(c2cc(Nc3ncc(C)s3)nc(Sc3ccc(NC(=O)C4CC4)cc3)n2)C1 [Compound I-25]
≤ 10 |  | 50 to 200 |  | CCC(=O)Nc1ccc(Sc2nc(Nc3cc(C)n[nH]3)cc(N3CCC(C(C)(C)C)CC3)n2)cc1 [Compound I-23]
≤ 10 |  | 50 to 200 |  | CCC(=O)Nc1ccc(Sc2nc(Nc3cc(C)n[nH]3)cc(N3CCC(C)(N4CCCC4)CC3)n2)cc1 [Compound I-34]
≤ 10 |  |  |  | CCC(=O)Nc1ccc(Sc2nc(Nc3cc(C)n[nH]3)cc(N3CCC(O)(CC(C)(C)C)C3)n2)cc1 (stereo not drawn) [Compound I-2]
≤ 10 |  | ≤ 50 |  | Cc1cnc(Nc2cc(N3CC[C@@H](N4CCCC4)C3)nc(Sc3ccc(NC(=O)C4CC4)cc3)n2)s1 [Compound I-37]
10 to 50 |  |  |  | CCC(=O)Nc1ccc(Sc2nc(Nc3cc(C)n[nH]3)cc(N3CC[C@@H](NC(C)C)C3)n2)cc1 [Compound I-1]
≤ 10 |  |  |  | CCC(=O)Nc1ccc(Sc2nc(Nc3cc(C)n[nH]3)cc(N3CCC(N4CCCC4(C)C)C3)n2)cc1 (stereo not drawn) [Compound I-3]
≤ 10 |  | ≤ 50 |  | CCC(=O)Nc1ccc(Sc2nc(Nc3cc(C)n[nH]3)cc(N3CC[C@H](N(C)CC)C3)n2)cc1 [Compound I-50]
